Reference: PMC11643962, “Exploring 4,7-Disubstituted Pyrimido[4,5-d]pyrimidines as Antiviral and Anticancer Agents” (Molecules, 2024)
Where two headings read alike, the source gives them in different places.

Key:
[1] = test system: HCoV-229E; test: Antiviral CPE reduction assay, HCoV-229E in HEL299 cells; format: cell-based, human coronavirus 229E; settings: Human coronavirus 229E, HEL 299, MTS, mean ± SD of two or three independent experiments
[2] = test system: HCoV-OC43; test: Antiviral CPE reduction assay, HCoV-OC43 in HEL299 cells; format: cell-based, human coronavirus OC43; settings: Betacoronavirus 1, OC43, HEL 299, MTS, mean ± SD of two or three independent experiments
[3] = test system: HCoV-NL63; test: Antiviral CPE reduction assay, HCoV-NL63 in Hep3B cells; format: cell-based, human coronavirus NL63; settings: Human coronavirus NL63, MTS, mean ± SD of two or three independent experiments
[4] = test system: influenza A/H1N1 (A/Ned/378/05); test: Antiviral CPE reduction assay, influenza A/H1N1 in MDCK cells; format: cell-based, influenza A virus; settings: Influenza A virus, read-out: Antiviral Activity (EC50) Influenza H1N1
[5] = test system: influenza A/H3N2 (A/HK/7/87); test: Antiviral CPE reduction assay, influenza A/H3N2 in MDCK cells; format: cell-based, influenza A virus; settings: Influenza A virus, read-out: Antiviral Activity (EC50) Influenza H3N2
[6] = test system: influenza B (B/Ned/537/05); test: Antiviral CPE reduction assay, influenza B in MDCK cells; format: cell-based, influenza B virus; settings: Influenza B virus, MDCK, read-out: Antiviral Activity (EC50) Influenza B
[7] = test system: respiratory syncytial virus A (RSV A Long); test: Antiviral CPE reduction assay, RSV A Long in Hep2 cells; format: cell-based; settings: human respiratory syncytial virus
[8] = test system: herpes simplex virus-1 (HSV-1 KOS); test: Antiviral CPE reduction assay, HSV-1 KOS in HEL299 cells; format: cell-based; settings: Human alphaherpesvirus 1, HEL 299, MTS, mean ± SD, no unit printed on the supplement page (Table 2 of the same screen is in µM)
[9] = test system: yellow fever virus (YFV 17D); test: microbe, parasite or virus in culture; format: cell-based; settings: Yellow fever virus, Vero C1008, read-out: Antiviral activity (EC50) YFV 17D
[10] = test system: Zika virus (ZikV mr766); test: Antiviral CPE reduction assay, Zika virus mr766 in VeroE6 cells; format: cell-based; settings: Zika virus, Vero C1008, MTS, mean ± SD, no unit printed on the supplement page (Table 2 of the same screen is in µM)
[11] = in vitro; settings: human
[12] = in vitro; settings: human; remark: listed apart in the source
[13] = in vitro; settings: dog
[14] = in vitro; settings: human; remark: listed apart in the source
[15] = in vitro; settings: African green monkey
[16] = test system: HL-60 (acute myeloid leukemia); test: MTS proliferation assay, HL-60; settings: Homo sapiens, HL-60, 72 h, read-out: Anti-Proliferative Activity (IC50) HL-60
[17] = test system: K-562 (chronic myeloid leukemia); test: MTS proliferation assay, K-562; settings: Homo sapiens, K562, 72 h, read-out: Anti-Proliferative Activity (IC50) K-562
[18] = test system: Z-138 (non-Hodgkin lymphoma); test: MTS proliferation assay, Z-138; settings: Homo sapiens, Z-138, 72 h, read-out: Anti-Proliferative Activity (IC50) Z-138
[19] = test system: LN-229 (glioblastoma); test: MTS proliferation assay, LN-229; settings: Homo sapiens, LN-229, 72 h, read-out: Anti-Proliferative Activity (IC50) LN-229
[20] = test system: DND-41 (acute lymphoblastic leukemia); test: MTS proliferation assay, DND-41; settings: Homo sapiens, DND41, 72 h, read-out: Anti-Proliferative Activity (IC50) DND-41
[21] = test system: Capan-1 (pancreatic adenocarcinoma); test: MTS proliferation assay, Capan-1; settings: Homo sapiens, CAPAN-1, 72 h, read-out: Anti-Proliferative Activity (IC50) Capan-1
[22] = test system: HCT-116 (colorectal carcinoma); test: MTS proliferation assay, HCT-116; settings: Homo sapiens, HCT-116, 72 h, read-out: Anti-Proliferative Activity (IC50) HCT-116
[23] = test system: NCI-H460 (lung carcinoma); test: MTS proliferation assay, NCI-H460; settings: Homo sapiens, NCI-H460, 72 h, read-out: Anti-Proliferative Activity (IC50) NCI-H460
[24] = H1N1, MDCK cells, CPE reduction, MTS, mean ± SD of two or three independent experiments
[25] = H3N2, MDCK cells, CPE reduction, MTS, mean ± SD of two or three independent experiments
[26] = HEp-2, Hep2 cells, CPE reduction, MTS, mean ± SD of two or three independent experiments, read-out: Antiviral Activity (EC50) RSV A Long
[27] = HEp-2, read-out: Antiviral Activity (EC50) RSV A Long

SMILES | EC50 [1] [µM] | EC50 [2] [µM] | EC50 [3] [µM] | EC50 [4, 24] [µM] | EC50 [5, 25] [µM] | EC50 [6] [µM] | EC50 [7, 26] [µM] | EC50 [8] [µM] | EC50 [9] [µM] | EC50 [10] [µM] | CC50 [13] [µM] | CC50 [15] [µM] | IC50 [16] [µM] | IC50 [17] [µM] | IC50 [18] [µM] | IC50 [19] [µM] | IC50 [20] [µM] | IC50 [21] [µM] | IC50 [22] [µM] | IC50 [23] [µM] | also measured
CN(C)CCNc1ncc2c(Nc3cccc4c3CCCC4)ncnc2n1 [Compound 7a, N^2-[2-(Dimethylamino)ethyl]-N^5-(5,6,7,8-tetrahydronaphthalen-1-yl)pyrimido[4,5-d]pyrimidine-2,5-diamine] | 15.8 ± 0.9 | 27.7 ± 0.6 | > 50 | > 50 | > 50 | > 50 | > 50 | > 50 | > 50 | > 50 | > 50 | > 50 | > 100 | 87 ± 1.3 | 58.9 ± 1.8 | > 100 | 57.9 ± 2 | > 100 | > 100 | > 100 | melting point: 176.3 °C; CC50 [11]: > 50 µM; CC50 [12]: > 50 µM; CC50 [14]: > 50 µM
CCN(CC)CCNc1ncc2c(Nc3cccc4c3CCCC4)ncnc2n1 [Compound 7b, N^2-[2-(Diethylamino)ethyl]-N^5-(5,6,7,8-tetrahydronaphthalen-1-yl)pyrimido[4,5-d]pyrimidine-2,5-diamine] | 11 ± 2.7 | 34.7 ± 16.7 | > 50 | > 50 | > 50 | > 50 | > 50 | > 50 | > 50 | > 50 | > 50 | > 50 | > 100 | > 100 | 62.6 ± 0.8 | > 100 | 67.1 ± 4.7 | > 100 | > 100 | > 100 | melting point: 181.3 °C; CC50 [11]: > 50 µM; CC50 [12]: > 50 µM; CC50 [14]: > 50 µM
CN(C)CCNc1ncc2c(Nc3cccc4c3CCC4)ncnc2n1 [Compound 7e, N^5-(2,3-dihydro-1H-inden-4-yl)-N^2-(2-(dimethylamino)ethyl)pyrimido[4,5-d]pyrimidine-2,5-diamine] | 20.6 ± 0.3 | > 50 | > 50 | > 50 | > 50 | > 50 | > 50 | > 50 | > 50 | > 50 | > 50 | > 50 | > 100 | > 100 | > 100 | > 100 | > 100 | > 100 | > 100 | > 100 | melting point: 180.9 °C; CC50 [11]: > 50 µM; CC50 [12]: > 50 µM; CC50 [14]: > 50 µM
C#Cc1cccc(Nc2ncnc3nc(NCCN(CC)CC)ncc23)c1 [Compound 7i, N^2-[2-(diethylamino)ethyl]-N^5-(3-ethynylphenyl)pyrimido[4,5-d]pyrimidine-2,5-diamine] | 19.3 ± 6.6 | ≥ 39.8 | > 50 | > 50 | > 50 | > 50 | > 50 | > 50 | > 50 | > 50 | > 50 | > 50 | > 100 | 51.8 ± 3.5 | 62.1 ± 0.8 | > 100 | 62.6 ± 0.1 | > 100 | > 100 | > 100 | 
C#Cc1cccc(Nc2ncnc3cc(OCCOC)c(OCCOC)cc23)c1 [Erlotinib, erlotinib, reference compound] | 22.5 ± 10 | > 100 | > 100 | > 100 | > 100 | > 100 | > 100 | > 100 | > 100 | > 100 | > 100 | > 100 | 10.7 ± 0.1 | > 100 | > 100 | > 100 | > 100 | 18.6 ± 1.1 | > 100 | > 100 | CC50 [11]: > 100 µM; CC50 [12]: > 100 µM; CC50 [14]: > 100 µM
COc1cc([C@@H]2c3cc4c(cc3[C@@H](O[C@@H]3O[C@@H]5CO[C@@H](C)O[C@H]5[C@H](O)[C@H]3O)[C@H]3COC(=O)[C@H]23)OCO4)cc(OC)c1O [Etoposide, etoposide, reference compound] |  |  |  |  |  |  |  |  |  |  |  |  | 0.2 ± 0.01 | 6 ± 2 | 0.08 ± 0.03 | 3 ± 0.2 | 0.1 ± 0.02 | 0.1 ± 0.03 | 1.4 ± 0.09 | 2.2 ± 0.8 | 
C#Cc1cccc(Nc2ncnc3cc(OCCOC)c(OCCO)cc23)c1 [OSI-420, reference compound] | > 100 | > 100 | > 100 |  |  | > 100 |  | > 100 | > 100 | > 100 | > 100 | > 100 | > 100 | > 100 | > 100 | > 100 | > 100 | 41.7 ± 3.6 | > 100 | > 100 | EC50 ([4]; H1N1, MDCK): > 100 µM; EC50 ([5]; H3N2, MDCK): > 100 µM; EC50 [7, 27]: > 100 µM
CCC(CC)COC(=O)[C@H](C)N[P@](=O)(OC[C@H]1O[C@@](C#N)(c2ccc3c(N)ncnn23)[C@H](O)[C@@H]1O)Oc1ccccc1 [Remdesivir, remdesivir, reference compound] | 0.05 ± 0.04 | 0.14 ± 0.007 | 0.14 ± 0.04 |  |  |  | 0.008 ± 0.001 |  |  |  |  |  |  |  |  |  |  |  |  |  | CC50 [11]: > 10 µM
NC(=O)c1ncn([C@@H]2O[C@H](CO)[C@@H](O)[C@H]2O)n1 [Ribavirin, ribavirin, reference compound] | 38.9 ± 1.7 | 100 ± 19 | 39.9 ± 7.1 |  |  | 7.4 ± 0.8 |  |  | 24.5 | 104 | > 250 | > 250 |  |  |  |  |  |  |  |  | EC50 ([4]; H1N1, MDCK): 9.6 ± 1 µM; EC50 ([5]; H3N2, MDCK): 7.2 ± 1.6 µM; EC50 [7, 27]: 35.9 ± 1.3 µM
CC(N)C12CC3CC(CC(C3)C1)C2 (centres unmarked) [Rimantadine, rimantadine, reference compound] |  |  |  | 1.7 ± 0.5 | 0.6 ± 0.07 | > 100 |  |  |  |  | > 100 |  |  |  |  |  |  |  |  |  | 
CC(=O)N[C@H]1[C@H]([C@H](O)[C@H](O)CO)OC(C(=O)O)=C[C@@H]1N=C(N)N [Zanamivir, zanamivir, reference compound] |  |  |  | 0.6 ± 0.3 | 3 ± 0.2 | 0.4 ± 0.01 |  |  |  |  | > 100 |  |  |  |  |  |  |  |  |  | 
